Test results taken from ChEMBL document CHEMBL1132054, “Synthesis and properties of 2-(naphthosultamyl)methyl-carbapenems with potent anti-MRSA activity: discovery of L-786,392” (Bioorg Med Chem Lett, 1999).
In brackets after ≈: the same amount, converted by molar mass.

How the values were obtained:
Staphylococcus aureus [1] = test: Effect of 43 mg/mL of Human Serum Albumin, Fraction V (HSA Fr. V) on antimicrobial activity was assessed against MSSA strain MB 2985; type: functional
Staphylococcus sp. = test: In vitro antibacterial activity against MRCNS.; type: functional
Streptococcus pneumoniae = test: In vitro antibacterial activity against PRSP.; type: functional
Staphylococcus aureus [2] = test: In vitro antibacterial activity against MRSA.; type: functional
Enterococcus faecalis = test: In vitro antibacterial activity against VREFs.; type: functional
Staphylococcus aureus [3] = test: Antibacterial activity against Methicillin sensitive Staphylococcus aureus-/+ HSA Fr. V; type: functional
Enterococcus faecium [4] = test: In vitro antibacterial activity against MDREFm.; type: functional
Staphylococcus aureus [5] = test: Antibacterial activity against Methicillin sensitive Staphylococcus aureus; type: functional
[6] = biological target: T1, Dipeptidase 1 (Sus scrofa) (UniProt P22412); test: Susceptibility to hog kidney dehydropeptidase-I.; type: functional, tissue-based; set-up: reference not given here
T1 sequence (whole entry): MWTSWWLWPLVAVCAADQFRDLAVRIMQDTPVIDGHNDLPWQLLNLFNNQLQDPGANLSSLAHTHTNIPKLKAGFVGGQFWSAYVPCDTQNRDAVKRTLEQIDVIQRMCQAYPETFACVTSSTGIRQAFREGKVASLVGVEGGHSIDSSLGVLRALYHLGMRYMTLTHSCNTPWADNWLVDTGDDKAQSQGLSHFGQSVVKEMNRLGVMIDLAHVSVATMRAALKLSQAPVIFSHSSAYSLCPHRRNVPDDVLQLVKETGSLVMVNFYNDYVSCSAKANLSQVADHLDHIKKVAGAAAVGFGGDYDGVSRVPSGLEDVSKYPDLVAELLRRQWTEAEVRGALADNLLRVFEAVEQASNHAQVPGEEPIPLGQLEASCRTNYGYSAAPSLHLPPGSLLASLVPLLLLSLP

[7] = Lethal dose defined as as the lowest dose resulting in the death of a single mouse; type: toxicity; conditions: in vivo
Mus musculus = species on record: Mus musculus; test: Dose showing no visible effects (ataxia, somnolence) in two mice; type: functional
[8] = biological target: T1, Dipeptidase 1 (Sus scrofa); test: Compound was tested for susceptibility to hog kidney dehydropeptidase-I and expressed as a reaction rate normalized to the rate observed with imipenem (IPM); type: functional, tissue-based
Enterococcus faecium [9] = test: Antibacterial activity against MDREFm; type: functional
Enterococcus faecium [10] = test: Antibacterial activity against VREFs; type: functional
Staphylococcus aureus [11] = test: Effect of 43 mg/mL of Human Serum Albumin, Fraction V (HSA Fr. V) on antimicrobial activity was assessed against Methicillin sensitive Staphylococcus aureus strain MB 2985; type: functional

Row | SMILES | MIC (Staphylococcus aureus [1]) [µg/mL] | MIC (Staphylococcus sp.) [µg/mL] | MIC (Streptococcus pneumoniae) [µg/mL] | MIC (Staphylococcus aureus [2]) [µg/mL] | MIC (Enterococcus faecalis) [µg/mL] | MIC (Staphylococcus aureus [3]) [µg/mL] | MIC (Enterococcus faecium [4]) [µg/mL] | MIC (Staphylococcus aureus [5]) [µg/mL] | Activity [6] | Lethal dose [7] [mg/kg] | NOEL (Mus musculus) [mg/kg] | Activity [8] | MIC (Enterococcus faecium [9]) [µg/mL] | MIC (Enterococcus faecium [10]) [µg/mL] | MIC (Staphylococcus aureus [11]) [µg/mL]
1 | C[C@@H](O)[C@H]1C(=O)N2C(C(=O)O)=C(CN3c4c(CC[N+]56CC[N+](CC(N)=O)(CC5)CC6)ccc5cccc(c45)S3(=O)=O)[C@H](C)[C@H]12.[Cl-].[Cl-] | 64 | > 64 | > 64 | > 64 | > 64 | 32 | > 64 | – | – | – | – | – | – | – | –
2 | C[C@@H](O)[C@H]1C(=O)N2C(C(=O)[O-])=C(CN3c4cccc5cccc(c45)S3(=O)=O)[C@H](C)[C@H]12.[Na+] | 0.25 | 3.5 | 0.25 | 0.7 | 8 | – | 25.4 | 0.016 | 0.99 | – | – | – | – | – | –
3 | C[C@@H](O)[C@H]1C(=O)N2C(C(=O)O)=C(CN3c4cccc5cc(CC[N+]67CC[N+](CC(N)=O)(CC6)CC7)cc(c45)S3(=O)=O)[C@H](C)[C@H]12.[Cl-].[Cl-] | 0.016 | 0.6 | 0.17 | 0.5 | 8 | 0.016 | 3.2 | – | 0.75 | 500 | 125 | – | – | – | –
4 | C[C@@H](O)[C@H]1C(=O)N2C(C(=O)O)=C(CN3c4cccc5ccc(CC[N+]67CC[N+](CC(N)=O)(CC6)CC7)c(c45)S3(=O)=O)[C@H](C)[C@H]12.[Cl-].[Cl-] | 0.016 | 1.2 | 0.35 | 0.9 | 8 | – | 10.1 | 0.016 | 0 | 63 | 16 | – | – | – | –
5 | C[C@@H](O)[C@H]1C(=O)N2C(C(=O)O)=C(CN3c4cccc5cc(CC[N+]67CC[N+](CC(=O)Nc8ccccc8)(CC6)CC7)cc(c45)S3(=O)=O)[C@H](C)[C@H]12.[Cl-].[Cl-] | – | 0.3 | 0.17 | 0.2 | 8 | – | 3.2 | – | 0.64 | 245 | <61 | – | – | – | –
6 | C[C@@H](O)[C@H]1C(=O)N2C(C(=O)O)=C(CN3c4cccc5cc(C[N+]67CC[N+](CC(N)=O)(CC6)CC7)cc(c45)S3(=O)=O)[C@H](C)[C@H]12.[Cl-].[Cl-] | 0.031 | 3 | 0.5 | 2 | 16 | 0.016 | 8 | – | 0.21 | – | – | – | – | – | –
7 | C[C@@H](O)[C@H]1C(=O)N2C(C(=O)O)=C(CN3c4ccc(C[N+]56CC[N+](CC(N)=O)(CC5)CC6)c5cccc(c45)S3(=O)=O)[C@H](C)[C@H]12.[Cl-].[Cl-] | 0.125 | 12.1 | 1 | 4.2 | 32 | 0.031 | 32 | – | 0.81 | – | – | – | – | – | –
8 | C[C@@H](O)[C@H]1C(=O)N2C(C(=O)O)=C(CN3c4cccc5c(CC[N+]67CC[N+](Cc8ccccc8)(CC6)CC7)ccc(c45)S3(=O)=O)[C@H](C)[C@H]12.[Cl-].[Cl-] | – | 1.3 | 0.35 | 0.9 | 8 | – | 6.4 | – | – | 250 | 63 | 1.85 | – | – | –
9 | C[C@@H](O)[C@H]1C(=O)N2C(C(=O)O)=C(CN3c4cccc5cc(CC[N+]67CC[N+](CCCO)(CC6)CC7)cc(c45)S3(=O)=O)[C@H](C)[C@H]12.[Cl-].[Cl-] | – | 1.5 | 0.17 | 1.1 | 8 | – | 4 | – | 0.85 | – | – | – | – | – | –
10 | C[C@@H](O)[C@H]1C(=O)N2C(C(=O)O)=C(SCCNC=N)C[C@H]12 [IMIPENEM ANHYDROUS] | 0.016 (≈ 0.0534 µM) | > 64 | 0.25 (≈ 0.835 µM) | > 40 | 8 (≈ 26.7 µM) | 0.016 (≈ 0.0534 µM) | > 64 | – | 1 | – | – | – | – | – | –
11 | C[C@@H](O)[C@H]1C(=O)N2C(C(=O)O)=C(CN3c4cccc5ccc(C[N+]67CC[N+](CC(N)=O)(CC6)CC7)c(c45)S3(=O)=O)[C@H](C)[C@H]12.[Cl-].[Cl-] | 0.031 | 4 | 0.71 | 2.5 | 16 | – | 20.2 | 0.016 | 0.01 | – | – | – | – | – | –
12 | CCC[N+]12CC[N+](CCc3cc4c5c(cccc5c3)N(CC3=C(C(=O)O)N5C(=O)[C@H]([C@@H](C)O)[C@H]5[C@H]3C)S4(=O)=O)(CC1)CC2.[Cl-].[Cl-] | – | 1.5 | 0.24 | 1 | 8 | – | 3.2 | – | – | – | – | – | – | – | –
13 | C[C@@H](O)[C@H]1C(=O)N2C(C(=O)O)=C(CN3c4cccc5c(C[N+]67CC[N+](CC(N)=O)(CC6)CC7)ccc(c45)S3(=O)=O)[C@H](C)[C@H]12.[Cl-].[Cl-] | 0.031 | 1.5 | 0.5 | 1 | 16 | 0.031 | 8 | – | 0.74 | 500 | 250 | – | – | – | –
14 | C[C@@H](O)[C@H]1C(=O)N2C(C(=O)O)=C(CN3c4cccc5cc(CCC[N+]67CC[N+](CC(N)=O)(CC6)CC7)cc(c45)S3(=O)=O)[C@H](C)[C@H]12.[Cl-].[Cl-] | 0.031 | 4 | 0.5 | 2.2 | 16 | 0.016 | 6.4 | – | 1.25 | – | – | – | – | – | –
15 | C[C@@H](O)[C@H]1C(=O)N2C(C(=O)O)=C(CN3c4cccc5c(CC[N+]67CC[N+](CCCO)(CC6)CC7)ccc(c45)S3(=O)=O)[C@H](C)[C@H]12.[Cl-].[Cl-] | – | 0.9 | 0.5 | 0.6 | 16 | – | 6.4 | – | 1.9 | > 500 | 250 | – | – | – | –
16 | C[C@@H](O)[C@H]1C(=O)N2C(C(=O)O)=C(CN3c4cccc5c(CCC[N+]67CC[N+](CC(N)=O)(CC6)CC7)ccc(c45)S3(=O)=O)[C@H](C)[C@H]12.[Cl-].[Cl-] | 0.031 | 3.5 | 0.25 | 2 | 8 | 0.016 | 4 | – | 2.64 | 500 | 125 | – | – | – | –
17 | CCC[N+]12CC[N+](CCc3ccc4c5c(cccc35)N(CC3=C(C(=O)O)N5C(=O)[C@H]([C@@H](C)O)[C@H]5[C@H]3C)S4(=O)=O)(CC1)CC2.[Cl-].[Cl-] | – | 4 | 0.25 | 2.2 | 16 | – | 6.4 | – | 1.93 | – | – | – | – | – | –
18 | C[C@@H](O)[C@H]1C(=O)N2C(C(=O)O)=C(CN3c4cccc5c(CC[N+]67CC[N+](CC(=O)Nc8ccccc8)(CC6)CC7)ccc(c45)S3(=O)=O)[C@H](C)[C@H]12.[Cl-].[Cl-] | – | 1.5 | 0.12 | 0.8 | 4 | – | 4 | – | 1.4 | 63 | 31 | – | – | – | –
19 | CN[C@H](CC(C)C)C(=O)N[C@H]1C(=O)N[C@@H](CC(N)=O)C(=O)N[C@H]2C(=O)N[C@H]3C(=O)N[C@H](C(=O)N[C@H](C(=O)O)c4cc(O)cc(O)c4-c4cc3ccc4O)[C@H](O)c3ccc(c(Cl)c3)Oc3cc2cc(c3O[C@@H]2O[C@H](CO)[C@@H](O)[C@H](O)[C@H]2O[C@H]2C[C@](C)(N)[C@H](O)[C@H](C)O2)Oc2ccc(cc2Cl)[C@H]1O [VANCOMYCIN] | – | 1.7 (≈ 1.17 µM) | 0.35 (≈ 0.242 µM) | 0.9 (≈ 0.621 µM) | > 64 | – | 20.2 (≈ 13.9 µM) | – | – | – | – | – | – | – | –
20 | C[C@@H](O)[C@H]1C(=O)N2C(C(=O)O)=C(CN3c4cccc5c(CC[N+]67CC[N+](CC(N)=O)(CC6)CC7)ccc(c45)S3(=O)=O)[C@H](C)[C@H]12.[Cl-].[Cl-] | – | 1 | 0.17 | 0.7 | – | 0.016 | – | – | 1.77 | > 500 | 250 | – | 4 | 8 | 0.031
21 | C[C@@H](O)[C@H]1C(=O)N2C(C(=O)O)=C(CN3c4ccc(CC[N+]56CC[N+](CC(N)=O)(CC5)CC6)c5cccc(c45)S3(=O)=O)[C@H](C)[C@H]12.[Cl-].[Cl-] | 0.062 | 12.1 | 1 | 8 | 32 | 0.062 | 16 | – | 0.74 | – | – | – | – | – | –
